Patent US12528818B2, “Compositions and methods for inhibition of RAS” (Leidos Biomedical Research, Inc., priority 2021, dated 2026)
Where two headings read alike, the source gives them in different places.

Tested on: pERK in NCI-H358 cells
Assay: Cell-based pERK HTRF assay (pERK inhibition in H358 cells)
Settings: pERK inhibition IC50, NCI-H358 cells, 30 min incubation, read-out: PERK in H358 cell

IC50 (Homo sapiens, NCI-H358, 0.5 h) [nM]	IC50 [nM]	SMILES
> 1000		CN1CCC[C@H]1COc1nc(NC2CCCN(C#N)C2)c2cc(Cl)c(-c3ccc(F)c4sc(N)nc34)c(F)c2n1 (some centres unmarked) [Compound 53]
< 100		C=CC(=O)N1C[C@@H](F)[C@@H](N(CC)c2nc(OC[C@@]34CCCN3C[C@H](F)C4)nc3cc(-c4ccc(F)c5sc(N)c(C#N)c45)c(C#N)cc23)C1 [Compound 386]
< 100		C=CC(=O)N1CC[C@@H](N(C)c2nc(OC[C@@]34CCCN3C[C@H](F)C4)nc3c(Cl)c(-c4ccc(F)c5sc(N)nc45)c(C(F)(F)F)cc23)C1 (single isomer, unassigned) [Compound 302]
> 1000		C=CC(=O)N1CC(Nc2nc(OC[C@@H]3CCCN3C)nc3c(F)c(-c4ccc(F)c5nc(N)sc45)c(Cl)cc23)C1 [Compound 90]
> 1000		C=CC(=O)N1CCC(N(C)c2nc(OCCOC)nc3c(F)c(-c4ccc(F)c5sc(N)c(C#N)c45)ccc23)[C@H]1C (some centres unmarked) [Compound 466]
< 100		C=CC(=O)N1CC[C@@H](N(C)c2nc(OC[C@@]34CCCN3C[C@H](F)C4)nc3cc(-c4ccc(F)c5sc(N)c(C#N)c45)c(C(F)(F)F)cc23)[C@H]1C [Compound 354, 4-(4-(((2R,3R)-1-acryloyl-2-methylpyrrolidin-3-yl)(methyl)amino)-2-(((2R,7aS)-2-fluorotetrahydro-1H-pyrrolizin-7a(5H)-yl)methoxy)-6-(trifluoromethyl)quinazolin-7-yl)-2-amino-7-fluorobenzo[b]thiophene-3-carbonitrile]
< 100		C=CC(=O)N1CC[C@@H](N(C)c2nc(OC[C@@]34CCCN3C[C@H](F)C4)nc3c(F)c(-c4ccc(F)c5sc(N)c(C#N)c45)c(C(F)(F)F)cc23)[C@H]1C [Compound 381, 4-(4-(((2R,3R)-1-acryloyl-2-methylpyrrolidin-3-yl)(methyl)amino)-8-fluoro-2-(((2R,7aS)-2-fluorotetrahydro-1H-pyrrolizin-7a(5H)-yl)methoxy)-6-(trifluoromethyl)quinazolin-7-yl)-2-amino-7-fluorobenzo[b]thiophene-3-carbonitrile]
< 100		C=CC(=O)N1CC[C@@H]2[C@H]1CN2c1nc(OC[C@@H]2C[C@@H](F)CN2C)nc2c(F)c(-c3ccc(F)c4sc(N)nc34)c(Cl)cc12 [Compound 89]
100 to 1000		C=CC(=O)N1CCC(N(CC)c2nc(OC[C@@]34CCCN3C[C@H](F)C4)nc3c(F)c(-c4ccc(F)c5sc(N)c(C#N)c45)ccc23)[C@H]1COC (some centres unmarked) [Compound 412]
100 to 1000		C=CC(=O)N1CCC(N(C)c2nc(OC[C@@H]3CCCN3C)nc3cc(-c4ccc(F)c5sc(N)c(C#N)c45)c(F)cc23)[C@H]1C (some centres unmarked) [Compound 417]
> 1000		CC#CC(=O)N1CCN(c2nc(OC[C@@H]3CC(F)(F)CN3C)nc3c(F)c(-c4ccc(F)c5sc(N)nc45)c(C(F)(F)F)cc23)CC1 [Compound 132]
< 100		C=CC(=O)N1CC[C@@H](N(C)c2nc(OC[C@@]34CCCN3C[C@H](F)C4)nc3c(F)c(-c4ccc(F)c5sc(N)c(C#N)c45)c(C(F)(F)F)cc23)[C@H]1CF [Compound 337]
100 to 1000		C=CC(=O)N1CCN(c2nc(OC[C@@]34CCCN3C[C@@H](F)C4)nc3c(F)c(-c4ccc(F)c5sc(N)nc45)c(C(F)(F)F)cc23)[C@H](C)C1 [Compound 217]
	< 100	C=CC(=O)N1C[C@H](C)N(c2nc(OC[C@@]34CCCN3C[C@H](F)C4)nc3c(F)c(-c4ccc(F)c5sc(N)nc45)c(C(F)(F)F)cc23)C[C@H]1C (atropisomer, axis not shown) [Compound 267]
100 to 1000		C=CC(=O)N1CC[C@@H](N(C)c2nc(OC[C@@H]3C[C@@H](F)CN3C)nc3c(F)c(-c4ccc(F)c5sc(N)nc45)c(C(F)(F)F)cc23)C1 (atropisomer, axis not shown) [Compound 231]
< 100		C=CC(=O)N1CCC(N(CC)c2nc(OC[C@@]34CCCN3C[C@H](F)C4)nc3c(F)c(-c4ccc(F)c5sc(N)c(C#N)c45)ccc23)[C@H]1C (some centres unmarked) [Compound 421]
< 100		C=CC(=O)N1C[C@H](C)N(c2nc(OC[C@@]34CCCN3C[C@H](F)C4)nc3c(F)c(-c4ccc(F)c5sc(N)nc45)c(C(F)(F)F)cc23)C[C@H]1C [Compound 202, 1-((2R,5S)-4-(7-(2-amino-7-fluorobenzo[d]thiazol-4-yl)-8-fluoro-2-(((2R,7aS)-2-fluorotetrahydro-1H-pyrrolizin-7a(5H)-yl)methoxy)-6-(trifluoromethyl)quinazolin-4-yl)-2,5-dimethylpiperazin-1-yl)prop-2-en-1-one]
< 100		C=CC(=O)N1CCN(c2nc(OC[C@@H]3CCCN3C)nc3c(F)c(-c4ccc(F)c5sc(N)nc45)c(C(F)(F)F)cc23)CC1 [Compound 71, 1-(4-(7-(2-amino-7-fluorobenzo[d]thiazol-4-yl)-8-fluoro-2-(((S)-1-methylpyrrolidin-2-yl)methoxy)-6-(trifluoromethyl)quinazolin-4-yl)piperazin-1-yl)prop-2-en-1-one]
100 to 1000		C=CC(=O)N1CC[C@@H]2[C@H]1CN2c1nc(OCC23CCCN2CCC3)nc2c(F)c(-c3ccc(F)c4sc(N)nc34)c(Cl)cc12 [Compound 65]
> 1000		C=CC(=O)N1C[C@H](N(C)c2ncnc3c(F)c(-c4ccc(F)c5sc(N)nc45)c(C(F)(F)F)cc23)C2(CC2)C1 (atropisomer, axis not shown) [Compound 263]
< 100		C=CC(=O)N1CC[C@@H](N(C)c2nc(OCC3(CN4CC[C@@H](F)C4)CC3)nc3c(F)c(-c4ccc(F)c5sc(N)nc45)c(C(F)(F)F)cc23)C1 [Compound 288]
< 100		C=CC(=O)N1C[C@H](N(C)c2nc(OC[C@@]34CCCN3C[C@H](F)C4)nc3cc(-c4ccc(F)c5sc(N)nc45)c(C(F)(F)F)cc23)C[C@H]1C [Compound 309]
< 100		C=CC(=O)N1CCC(N(CC)c2nc(OC[C@@H]3C[C@@H](F)CN3C)nc3c(F)c(-c4ccc(F)c5sc(N)c(C#N)c45)c(C(F)(F)F)cc23)[C@H]1COC (some centres unmarked) [Compound 453]
100 to 1000		C=CC(=O)N1CC[C@@H](N(CC)c2nc(OC[C@@]34CCCN3C[C@H](F)C4)nc3cc(-c4ccc(F)c5sc(N)c(C#N)c45)c(C#N)cc23)[C@H]1COC [Compound 439]
> 1000		C=CC(=O)N1CC(N(CCC#N)c2nc(OC[C@@H]3CCCN3C)nc3c(F)c(-c4ccc(F)c5sc(N)nc45)c(Cl)cc23)C1 [Compound 141]
< 100		C=CC(=O)N1CC[C@@H](N(CC)c2nc(OC[C@@]34CCCN3C[C@H](F)C4)nc3cc(-c4ccc(F)c5sc(N)c(C#N)c45)c(F)cc23)[C@H]1C [Compound 414]
> 1000		CC#CC(=O)N1CC(Nc2nc(OC[C@@H]3CCCN3C)nc3c(F)c(-c4ccc(F)c5sc(N)nc45)c(Cl)cc23)C1 [Compound 92, 1-[3-[[7-(2-amino-7-fluoro-1,3-benzothiazol-4-yl)-6-chloro-8-fluoro-2-[[(2S)-1-methylpyrrolidin-2-yl]methoxy]quinazolin-4-yl]amino]azetidin-1-yl]but-2-yn-1-one]
< 100		C=CC(=O)N1C[C@@H](F)[C@@H](N(CC)c2nc(OC[C@@]34CCCN3C[C@H](F)C4)nc3c(F)c(-c4ccc(F)c5sc(N)c(C#N)c45)c(C(F)(F)F)cc23)C1 [Compound 362]
< 100		C=CC(=O)N1C[C@H](C)N(c2nc(OCC34CCCN3CCC4)nc3c(F)c(-c4ccc(F)c5sc(N)c(C#N)c45)c(C(F)(F)F)cc23)C[C@H]1C [Compound 346]
